36 molecules from patent publication US20230382904A1, “SUBSTITUTED 4-([1,2,4]TRIAZOLO[1,5-a]PYRIDIN-6-YL)THIOPHENE-2-CARBOXAMIDE DERIVATIVES AND USE THEREOF” (The Johns Hopkins University, priority 2020, published 2023) can be followed below.

The target in one assay is DLK (Homo sapiens (Human), UniProt Q12852). The assay can be described thus: DLK biochemical assay (TR-FRET, MKK7 phosphorylation). The method, then:
DLK assay is a biochemical assay format designed to screen for inhibitors of DLK. Enzymatic activity of DLK was measured by monitoring phosphorylation of the physiological substrate MKK7 (MAP2K7, Dual specificity mitogen-activated protein kinase kinase 7). Phosphorylation was detected by a TR-FRET system whereby His-tagged MKK7 was labeled by a XL665-labeled anti-His antibody (FRET acceptor, emission 665 nm). DLK phosphorylates MKK7 at T275/S277, which was detected by an Eu-labeled anti-phospho-MKK7 (T275/S277) antibody (F RET donor, excitation 340 nm). Phosphorylation of MKK7 results in an increased TR-FRET signal (Ratio XL665-channel/Eu-channel) and inhibition of enzymatic activity of DLK decreases the TR-FRET signal.
Assay Protocol for 1536 MTP format: test compounds were predispensed (60 nl) in test plates; +3 μl DLK solution (10 nM DLK, catalytic domain, Carna Biosiences, 0.6 mM DTT in assay buffer); +2 μl substrate solution (15 nM MKK7, LDB; 60 μM ATP; 0.4 mM DTT in assay buffer); 90 min incubation at RT; +2 μl detection mix (5 nM XL665-labeled anti-His antibody, Cisbio; 0.1 nM Eu-labeled anti-phospho-MKK7 (T275/S277), Cisbio/Millipore in detection buffer); 16 h incubation at 37° C.; endpoint measurement BMG (HTRF).
Assay Protocol for 384 low volume MTP format: 1 μl of test compounds were pipetted into test plate; +5 μl DLK solution (10 nM DLK, catalytic domain, Carna Biosiences in assay buffer); +5 μl substrate solution (15 nM MKK7, LDB; 60 μM ATP, in assay buffer); 90 min incubation at RT; +9 μl detection mix (20 nM XL665-labeled anti-His antibody, Cisbio; 0.4 nM Eu-labeled anti-phospho-MKK7 (T275/S277), Cisbio/Millipore in detection buffer); 16 h incubation at 4° C.; endpoint measurement BMG (HTRF).
(§1) All indicated concentrations final concentrations.
Assay buffer (384 format): 50 mM Hepes pH 7.5, 10 mM MgCl2, 1 mM EGTA, 1 mM DTT, 0,01% Triton X-100, 0.01% BSA, 1:500 Smart Block.
(§2) Detection buffer: 25 mM Tris/HCl pH 7.5, 100 mM EDTA, 100 mM NaCl, 200 mM KF, 0.01% Tween 20, 1:500 Smart Block.

The next assay deals with LZK (Homo sapiens (Human), UniProt O43283). The assay can be described thus: LZK biochemical assay (TR-FRET, MKK7 phosphorylation). The method, then: LZK assay is a biochemical assay format designed to screen for inhibitors of LZK. Enzymatic activity of LZK was measured by monitoring phosphorylation of the physiological substrate MKK7 (MAP2K7, Dual specificity mitogen-activated protein kinase kinase 7). Phosphorylation was detected by a TR-FRET system whereby His-tagged MKK7 was labeled by a XL665-labeled anti-His antibody (FRET acceptor, emission 665 nm). LZK phosphorylates MKK7 at T275/S277 which were detected by an Eu-labeled anti-phospho-MKK7 (T275/S277) antibody (FRET donor, excitation 340 nm). Phosphorylation of MKK7 results in an increased TR-FRET signal (Ratio XL665-channel/Eu-channel) and inhibition of enzymatic activity of LZK decreases the TR-FRET signal.
Assay Protocol for 384 low volume MTP format: 1 μl of test compound was pipetted into test plate; +5 μl LZK solution (10 nM LZK, catalytic domain, Carna Biosiences in assay buffer); +5 μl substrate solution (15 nM MKK7, LDB; 15 μM ATP, in assay buffer); 90 min incubation at RT; +5 μl detection mix (20 nM XL665-labeled anti-His antibody, Cisbio; 0.4 nM Eu-labeled anti-phospho-MKK7 (T275/S277), Cisbio/Millipore in detection buffer), 16 h incubation at 32° C.; endpoint measurement BMG (HTRF).
as §1
Assay buffer (384 format): 50 mM Hepes pH 7.5, 10 mM MgCl2, 1 mM EGTA, 1 mM DTT, 0.01% Triton X-100, 0.01% BSA, 1:500 Smart Block.
as §2

Chain of LZK (O43283 168-409): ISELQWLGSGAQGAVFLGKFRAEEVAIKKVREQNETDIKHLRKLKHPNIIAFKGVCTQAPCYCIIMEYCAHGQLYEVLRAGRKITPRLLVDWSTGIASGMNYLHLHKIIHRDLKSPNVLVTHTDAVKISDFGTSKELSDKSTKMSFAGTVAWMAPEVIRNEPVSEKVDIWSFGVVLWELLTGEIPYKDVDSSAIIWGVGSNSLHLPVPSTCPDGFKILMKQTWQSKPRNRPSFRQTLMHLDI
Chain of DLK (Q12852 1-520): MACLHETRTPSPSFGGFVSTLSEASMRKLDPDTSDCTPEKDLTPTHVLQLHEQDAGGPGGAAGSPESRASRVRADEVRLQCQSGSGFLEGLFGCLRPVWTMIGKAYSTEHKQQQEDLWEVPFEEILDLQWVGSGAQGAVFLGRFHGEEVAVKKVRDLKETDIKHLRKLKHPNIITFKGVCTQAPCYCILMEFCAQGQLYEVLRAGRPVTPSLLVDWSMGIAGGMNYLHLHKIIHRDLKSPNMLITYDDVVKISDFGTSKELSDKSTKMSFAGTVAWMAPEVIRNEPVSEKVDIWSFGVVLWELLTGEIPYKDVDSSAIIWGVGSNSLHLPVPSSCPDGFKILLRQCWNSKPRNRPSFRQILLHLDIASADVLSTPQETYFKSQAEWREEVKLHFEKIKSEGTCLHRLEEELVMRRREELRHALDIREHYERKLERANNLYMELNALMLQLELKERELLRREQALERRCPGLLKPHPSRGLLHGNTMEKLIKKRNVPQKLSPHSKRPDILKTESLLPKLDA

A word on the IC50: it is the concentration at which inhibition is half-maximal. As for `C[C@H](NC(=O)c1cc(-c2cc(C(=O)NC3CNC(=O)C3)c3nc(N)nn3c2)cs1)c1ccccc1` (single isomer, unassigned) [Compound 55], the IC50 turned out to be 88 nM against DLK and 6500 nM on LZK.
Taken in the same sequence, the figures for `C[C@H](NC(=O)c1cc(-c2cc(C(=O)NC3CCNC3)c3nc(N)nn3c2)cs1)c1ccccc1` (single isomer, unassigned) [Compound 57] were 92 nM and 2100 nM.
Taken in the same sequence, the figures for `C[C@H](NC(=O)c1cc(-c2cc(C(=O)NC3CCNC3)c3nc(N)nn3c2)cs1)c1ccc(F)cc1` (single isomer, unassigned) [Compound 66] were 88 nM and 3500 nM.
Regarding `CC(NC(=O)c1cc(-c2csc(C(=O)N[C@@H](C)c3ccccc3)c2)cn2nc(N)nc12)C(F)(F)F` (single isomer, unassigned) [Compound 71], the IC50 against DLK turned out to be 4.85 nM; against LZK, 55 nM.
Taken in the same sequence, the figures for `CC(NC(=O)c1cc(-c2csc(C(=O)N[C@@H](C)c3ccccc3)c2)cn2nc(N)nc12)C(F)(F)F` (single isomer, unassigned) [Compound 72] were 89 nM and 6200 nM.
Taken in the same sequence, the figures for `CC[C@H](NC(=O)c1cc(-c2cc(C(=O)NC(C)CF)c3nc(N)nn3c2)cs1)c1ccc(F)cc1` (single isomer, unassigned) [Compound 144-2] were 23 nM and 200 nM.
Taken in the same sequence, the figures for `C[C@H]1CCC[C@@H](NC(=O)c2cc(-c3ccc4nc(N)nn4c3)cs2)C1` (single isomer, unassigned) [Compound 165] were 880 nM and over 30000 nM.
In the case of `C[C@H]1CCC[C@H](NC(=O)c2cc(-c3ccc4nc(N)nn4c3)cs2)C1` (single isomer, unassigned) [Compound 198], the IC50 against DLK is 1250 nM; at LZK it was over 30000 nM.
Regarding `C[C@H]1CCC[C@H](NC(=O)c2cc(-c3ccc4nc(N)nn4c3)cs2)C1` (single isomer, unassigned) [Compound 199], the IC50 at DLK is 1200 nM; on LZK, over 30000 nM.
On the same counts, the results for `C[C@H]1CCC[C@@H](NC(=O)c2cc(-c3ccc4nc(N)nn4c3)cs2)C1` (single isomer, unassigned) [Compound 200] are 560 nM and over 30000 nM.
On the same counts, the results for `COC[C@H](NC(=O)c1cc(-c2cc(C(=O)NC(C)C)c3nc(N)nn3c2)cs1)c1ccccc1` (stereo in doubt) [Compound 91] are 3.3 nM and 48 nM.
On the same counts, the results for `CN(C)C(=O)c1cc(-c2csc(C(=O)NCc3ccc(F)cc3)c2)cn2nc(N)nc12` [Compound 1] are 20000 nM and over 30000 nM.
In the case of `COc1cccc(CNC(=O)c2cc(-c3cc(C(=O)N(C)C)c4nc(N)nn4c3)cs2)c1` [Compound 2], the IC50 at DLK is 18000 nM; against LZK, over 30000 nM.
On the same counts, the results for `CCNC(=O)c1cc(-c2csc(C(=O)NCc3ccccc3)c2)cn2nc(N)nc12` [Compound 5] are 160 nM and 1200 nM.
Take `CCNC(=O)c1cc(-c2csc(C(=O)NCc3cccc(OC)c3)c2)cn2nc(N)nc12` [Compound 6]: the figures for the IC50 against DLK and at LZK were 84 nM and 1100 nM, respectively.
On the same counts, the results for `CCNC(=O)c1cc(-c2csc(C(=O)NCc3ccc(F)cc3)c2)cn2nc(N)nc12` [Compound 7] are 87 nM and 480 nM.
In the case of `CNC(=O)c1cc(-c2csc(C(=O)NCc3cccc(OC)c3)c2)cn2nc(N)nc12` [Compound 8], the results for the IC50 against DLK and on LZK were 140 nM and 2200 nM, respectively.
Taken in the same sequence, the figures for `CNC(=O)c1cc(-c2csc(C(=O)NCc3ccc(F)cc3)c2)cn2nc(N)nc12` [Compound 9] were 130 nM and 1200 nM.
Taken in the same sequence, the figures for `CNC(=O)c1cc(-c2csc(C(=O)NCc3ccccc3)c2)cn2nc(N)nc12` [Compound 10] were 120 nM and 990 nM.
Taken in the same sequence, the figures for `CC(C)NC(=O)c1cc(-c2csc(C(=O)NCc3ccccc3)c2)cn2nc(N)nc12` [Compound 11] were 17 nM and 90 nM.
As to `CC(C)NC(=O)c1cc(-c2csc(C(=O)NC3CCCCC3)c2)cn2nc(N)nc12` [Compound 12], the figures for the IC50 on DLK and against LZK were 21 nM and 400 nM, respectively.
Taken in the same sequence, the figures for `COc1cccc(CNC(=O)c2cc(-c3cc(C(=O)NC(C)(C)C)c4nc(N)nn4c3)cs2)c1` [Compound 13] were 34 nM and 140 nM.
Taken in the same sequence, the figures for `CC(C)(C)NC(=O)c1cc(-c2csc(C(=O)NC3CCCCC3)c2)cn2nc(N)nc12` [Compound 14] were 34 nM and 270 nM.
Taken in the same sequence, the figures for `CC(C)(C)NC(=O)c1cc(-c2csc(C(=O)NCc3ccc(F)cc3)c2)cn2nc(N)nc12` [Compound 15] were 58 nM and 150 nM.
In the case of `CC(C)(C)NC(=O)c1cc(-c2csc(C(=O)NCc3ccccc3)c2)cn2nc(N)nc12` [Compound 16], the values for the IC50 against DLK and against LZK were 37 nM and 130 nM, respectively.
Taken in the same sequence, the figures for `C[C@H](NC(=O)c1cc(-c2cc(C(=O)NC(C)(C)C)c3nc(N)nn3c2)cs1)c1ccc(F)cc1` [Compound 17] were 31 nM and 150 nM.
On the same counts, the results for `C[C@H](NC(=O)c1cc(-c2cc(C(=O)NC(C)(C)C)c3nc(N)nn3c2)cs1)c1ccccc1` [Compound 18] are 12 nM and 110 nM.
Taken in the same sequence, the figures for `CC(C)NC(=O)c1cc(-c2csc(C(=O)N[C@@H](C)c3ccccc3)c2)cn2nc(N)nc12` [Compound 20] were 6.32 nM and 122 nM.
For `C[C@@H](CO)NC(=O)c1cc(-c2csc(C(=O)NCc3ccccc3)c2)cn2nc(N)nc12` [Compound 21], the results for the IC50 against DLK and on LZK were 9.3 nM and 40 nM, respectively.
Taken in the same sequence, the figures for `Nc1nc2c(C(=O)NC3CCNC3)cc(-c3csc(C(=O)NCc4ccc(F)cc4)c3)cn2n1` (stereo not drawn) [Compound 22] were 185 nM and 650 nM.
Taken in the same sequence, the figures for `CC(C)(C)NC(=O)c1cc(-c2csc(C(=O)NCc3nc4ccccc4o3)c2)cn2nc(N)nc12` [Compound 23] were 300 nM and 630 nM.
Taken in the same sequence, the figures for `COCCNC(=O)c1cc(-c2csc(C(=O)NCc3ccc(F)cc3)c2)cn2nc(N)nc12` [Compound 24] were 69 nM and 630 nM.
`C[C@H](NC(=O)c1cc(-c2cc(C(=O)N[C@@H](C)CO)c3nc(N)nn3c2)cs1)c1ccccc1` [Compound 25]: the IC50 against DLK was 4.61 nM; at LZK, 61 nM.
Taken in the same sequence, the figures for `C[C@H](NC(=O)c1cc(-c2cc(C(=O)N[C@@H](C)CO)c3nc(N)nn3c2)cs1)c1ccc(F)cc1` [Compound 26, 2-Amino-6-(5-{[(1S)-1-(4-fluorophenyl)ethyl]carbamoyl}thiophen-3-yl)-N-[(2S)-1-hydroxypropan-2-yl][1,2,4]triazolo[1,5-a]pyridine-8-carboxamide] were 6.4 nM and 68 nM.
On the same counts, the results for `CC(NC(=O)c1cc(-c2csc(C(=O)NCc3ccc(F)cc3)c2)cn2nc(N)nc12)C(F)(F)F` (stereo not drawn) [Compound 27] are 58 nM and 99 nM.
Taken in the same sequence, the figures for `C[C@@H](CO)NC(=O)c1cc(-c2csc(C(=O)NCc3ccc(F)cc3)c2)cn2nc(N)nc12` [Compound 30] were 16 nM and 45 nM.
